Columns and labels:
[1] = Antiproliferative activity against human HL60 cells after 72 hrs MTT assay; assay type: functional, cell-based; conditions: HL-60, 72 h
[2] = Antiproliferative activity against human Bel7402 cells after 72 hrs MTT assay; assay type: functional, cell-based; conditions: Bel-7402, 72 h
[3] = Antiproliferative activity against human SF763 cells after 72 hrs MTT assay; assay type: functional, cell-based; conditions: SF763, 72 h
HeLa = experiment: Antiproliferative activity against human HeLa cells after 72 hrs MTT assay; assay type: functional, cell-based
B16 [4] = experiment: Antiproliferative activity against mouse B16 cells after 72 hrs MTT assay; assay type: functional, cell-based; conditions: B16, 72 h
H22 [5] = experiment: Antitumor activity against […] H22 cells transplanted in ICR mouse assessed as tumor growth inhibition at 30 mg/kg, ip administered 7 days post tumor transplantation; assay type: functional; conditions: 168 h, route intraperitoneal
B16 [6] = experiment: Antitumor activity against mouse B16 cells transplanted in ICR mouse assessed as tumor growth inhibition at 30 mg/kg, ip administered 7 days post tumor transplantation; assay type: functional; conditions: 168 h, route intraperitoneal
Mus musculus [7] = experiment: Toxicity in […] H22 cells transplanted ICR mouse assessed as mouse survival at 30 mg/kg, ip administered 7 days post tumor transplantation; assay type: organism-based; design: dose 30 mg/kg, route intraperitoneal; conditions: in vivo, 168 h
Mus musculus [8] = experiment: Toxicity in […] H22 cells transplanted ICR mouse assessed as mouse body weight at 30 mg/kg, ip administered 7 days post tumor transplantation (reference value: 18.4 to 18.9g); assay type: organism-based; design: dose 30 mg/kg, route intraperitoneal; conditions: in vivo, 168 h
Mus musculus [9] = experiment: Toxicity in mouse […] cells transplanted ICR mouse assessed as mouse survival at 30 mg/kg, ip administered 7 days post tumor transplantation; assay type: organism-based; design: dose 30 mg/kg, route intraperitoneal; conditions: in vivo, 168 h
Mus musculus [10] = experiment: Toxicity in mouse […] cells transplanted ICR mouse assessed as mouse body weight at 30 mg/kg, iv administered 7 days post tumor transplantation (reference value: 18.3 to 18.6g); assay type: organism-based; design: dose 30 mg/kg, route intravenous; conditions: in vivo, 168 h
B16 [11] = experiment: Antitumor activity against mouse B16 cells transplanted in ICR mouse assessed as tumor growth inhibition at 30 mg/kg, iv administered 7 days post tumor transplantation; assay type: functional; conditions: B16, 168 h
Mus musculus [12] = experiment: Toxicity in mouse […] cells transplanted ICR mouse assessed as mouse survival at 30 mg/kg, iv administered 7 days post tumor transplantation; assay type: organism-based; design: dose 30 mg/kg, route intravenous; conditions: in vivo, 168 h
Mus musculus [13] = experiment: Toxicity in mouse B6 cells transplanted ICR mouse assessed as mouse body weight at 30 mg/kg, iv administered 7 days post tumor transplantation (reference value: 18.2 +/- 0.5g); assay type: organism-based; design: dose 30 mg/kg, route intravenous; conditions: in vivo, 168 h
H22 [14] = experiment: Antitumor activity against human H22 cells transplanted in ICR mouse assessed as tumor growth inhibition at 30 mg/kg, iv administered 7 days post tumor transplantation; conditions: 168 h, read-out: INH

Row | Compound | IC50 [1] [µM] | IC50 [2] [µM] | IC50 [3] [µM] | IC50 (HeLa) [µM] | IC50 (B16 [4]) [µM] | inhibition in vivo at 30 mg/kg (H22 [5]) [%] | inhibition in vivo at 30 mg/kg (B16 [6]) [%] | Activity (Mus musculus [7]) | Activity (Mus musculus [8]) [g] | Activity (Mus musculus [9]) | Activity (Mus musculus [10]) [g] | inhibition in vivo at 30 mg/kg (B16 [11]) [%] | Activity (Mus musculus [12]) | Activity (Mus musculus [13]) [g] | inhibition in vivo at 30 mg/kg (H22 [14]) [%]
1 | C=C(C)[C@@H]1CC[C@]2(C(=O)NCCN)CC[C@]3(C)[C@H](CC[C@@H]4[C@@]5(C)CCC(=O)[C@@](C)(COC(C)=O)[C@@H]5CC[C@]43C)[C@@H]12 | 8.64 | 7.22 | 6.23 | 10.6 | 5.58 | 51.8 | 62.7 | Non-toxic | 27.2 | Non-toxic | 26.9 |  |  |  | 
2 | C=C(C)[C@@H]1CC[C@]2(C(=O)O)CC[C@]3(C)[C@H](CC[C@@H]4[C@@]5(C)CC[C@H](O)[C@@](C)(CO)[C@@H]5CC[C@]43C)[C@@H]12 | 45.1 | 39.7 | 43.4 | 52.4 | 29.9 | 27.8 | 32.4 | Non-toxic | 26.1 | Non-toxic | 26.7 |  |  |  | 
3 | C=C(C)[C@@H]1CC[C@]2(C(=O)O)CC[C@]3(C)[C@H](CC[C@@H]4[C@@]5(C)CCC(=O)[C@@](C)(CO)[C@@H]5CC[C@]43C)[C@@H]12 | 36.1 | 33.8 | 29.3 | 39.2 | 20.6 | 39.5 | 48.1 | Non-toxic | 26.8 | Non-toxic | 27.3 |  |  |  | 
4 | O=c1[nH]cc(F)c(=O)[nH]1 [FLUOROURACIL] |  |  |  |  |  |  |  |  |  |  |  | 70.3 | Non-toxic | 26.2 | 
5 | O=P1(N(CCCl)CCCl)NCCCO1 (configuration not stated) [CYCLOPHOSPHAMIDE ANHYDROUS] |  |  |  |  |  |  |  |  |  |  |  |  |  |  | 53.7

Source: ChEMBL document CHEMBL3351759, “Synthesis and antitumor activity of novel 3-oxo-23-hydroxybetulinic acid derivatives” (Eur J Med Chem, 2014)
